Columns and labels:
[1] = log P determination by HPLC (reversed-phase C18), EEC Directive 79/831 Annex V.A8; format: physicochemical; conditions: reversed-phase C18 HPLC column; pH 2.3; HPLC, reversed-phase C 18, 43° C., 0.1% aqueous phosphoric acid/acetonitrile; read-out: log P (pH 2.3)
Procedure: The stated log P values were determined in accordance with EEC Directive 79/831 Annex V.A8 by HPLC (High Performance Liquid Chromatography) using a reversed-phase column, (C 18). Temperature: 43° C. Mobile phases for the determination in the acidic range: 0.1% aqueous phosphoric acid, acetonitrile; linear gradient from 10% acetonitrile to 90% acetonitrile. Calibration was carried out using unbranched alkan-2-ones (having 3 to 16 carbon atoms) with known logP values (determination of the logP values by the retention times using linear interpolation between two successive alkanones).

[2] = system: peach aphids (Myzus persicae); test: Myzus test (cabbage leaves dipped); format: in vivo; conditions: 144 h, after 6 d, solvent 30 parts DMF, emulsifier 1 part (Table D-1), read-out: Kill rate in % after 6 d
Procedure: To produce a suitable preparation of active compound, 1 part by weight of active compound is mixed with the stated amounts of solvent and emulsifier, and the concentrate is diluted with emulsifier-containing water to the desired concentration. Cabbage leaves (Brassica oleracea) which are heavily infested by peach aphids (Myzus persicae) are treated by being dipped into the preparation of the active compound of the desired concentration. After the desired period of time, the kill in % is determined. 100% means that all aphids have been killed; 0% means that none of the aphids has been killed.

| Structure (SMILES) | chromatographic logP [1] | further results |
| --- | --- | --- |
| O=C(CSc1nccc(-c2ccccn2)n1)OCC1CCC(=O)O1 (centres unmarked) [Example 206] | 1.64 |  |
| O=C(CSc1nccc(-c2ccccn2)n1)OCC#CCCl [Example 207] | 2.61 |  |
| O=C(CSc1nccc(-c2ccccn2)n1)OCCn1cncn1 [Example 209] | 1.32 |  |
| O=C(CSc1nccc(-c2ccccn2)n1)OCCn1ccnn1 [Example 210] | 1.42 |  |
| CC(C)(C)C1(COC(=O)CSc2nccc(-c3ccccn3)n2)COC1 [Example 211] | 2.75 |  |
| CO/N=C/C(C)OC(=O)CSc1nccc(-c2ccccn2)n1 (centres unmarked) [Example 212] | 2.13 |  |
| CNC(=O)NCCCOC(=O)CSc1nccc(-c2ccccn2)n1 [Example 213] | 1.42 |  |
| C/C=N/OCCOC(=O)CSc1nccc(-c2ccccn2)n1 [Example 214] | 2.13 |  |
| CC(C=C(Cl)Cl)OC(=O)CSc1nccc(-c2ccccn2)n1 (centres unmarked) [Example 215] | 3.48 |  |
| CCC(=O)NCCCOC(=O)CSc1nccc(-c2ccccn2)n1 [Example 216] | 2.04 |  |
| CN(C=O)CCOC(=O)CSc1nccc(-c2ccccn2)n1 [Example 217] | 1.4 |  |
| CN1CCC(COC(=O)CSc2nccc(-c3ccccn3)n2)O1 (centres unmarked) [Example 220] | 1.12 |  |
| O=C(CSc1nccc(-c2ccccn2)n1)OC1CC(F)(F)C1(F)F (centres unmarked) [Example 221] | 3 |  |
| CCC1(COC(=O)CSc2nccc(-c3ccccn3)n2)COCOC1 [Example 222] | 2.51 |  |
| C=CC(=O)OCCCOC(=O)CSc1nccc(-c2ccccn2)n1 [Example 224] | 2.49 |  |
| COCN(C)C(=O)COC(=O)CSc1nccc(-c2ccccn2)n1 [Example 230] | 1.96 |  |
| CCNC(=O)COC(=O)CSc1nccc(-c2ccccn2)n1 [Example 231] | 1.97 |  |
| CON(C)C(=O)COC(=O)CSc1nccc(-c2ccccn2)n1 [Example 234] | 1.97 |  |
| O=C(CSc1nccc(-c2ccccn2)n1)OCCOCC(F)(F)F [Example 236] | 2.7 |  |
| CCOC(=O)C(OC(=O)CSc1nccc(-c2ccccn2)n1)C(C)C (centres unmarked) [Example 243] | 3.2 |  |
| CC(C)NC(=O)OCCOC(=O)CSc1nccc(-c2ccccn2)n1 [Example 245] | 2.19 |  |
| CC(=O)OC(C)C(C)OC(=O)CSc1nccc(-c2ccccn2)n1 (centres unmarked) [Example 246] | 2.54 |  |
| CC(=O)O[C@H]1CCC[C@H]1OC(=O)CSc1nccc(-c2ccccn2)n1 [Example 248] | 2.65 |  |

| Structure (SMILES) | chromatographic logP [1] | further results |
| --- | --- | --- |
| O=C(CSc1nccc(-c2ccccn2)n1)OC1COC1 [Example 249] | 1.69 |  |
| O=C(CSc1nccc(-c2ccccn2)n1)OCCc1noc(=O)[nH]1 [Example 250] | 1.97 |  |
| Cc1noc(C)c1CCOC(=O)CSc1nccc(-c2ccccn2)n1 [Example 252] | 2.25 |  |
| O=C(CSc1nccc(-c2ccccn2)n1)OCC(F)=C(Cl)Cl [Example 253] | 3.19 |  |
| CCOC(=O)CSc1nccc(-c2ccc(CC)cn2)n1 [Example 254] | 2.98 |  |
| CCOC(=O)CSc1nccc(-c2ccc(Cl)cn2)n1 [Example 256] | 3.23 |  |
| CCOC(=O)CSc1nccc(-c2ccc(C(F)(F)F)cn2)n1 [Example 257] | 3.48 |  |
| CCOC(=O)CSc1nccc(-c2cc(CC)ccn2)n1 [Example 259] | 2.69 |  |
| CCOC(=O)CSc1nccc(-c2cc(OC)ccn2)n1 [Example 261] | 1.62 |  |
| CCOC(=O)CSc1nccc(-c2cc(-c3ccccc3)ccn2)n1 [Example 262] | 3.54 |  |
| CCOC(=O)CSc1nccc(-c2ncccc2C)n1 [Example 265] | 1.85 |  |
| CCOC(=O)CSc1nccc(-c2ncccc2CC)n1 [Example 266] | 2.22 |  |
| CCOC(=O)CSc1nccc(-c2ncccc2OC)n1 [Example 268] | 1.34 |  |
| CCOC(=O)CSc1nccc(-c2ncccc2C(F)(F)F)n1 [Example 269] | 2.53 |  |
| CCOC(=O)CSc1ncc(C)c(-c2ccccn2)n1 [Example 271] | 2.18 |  |
| CCOC(=O)CSc1nccc(-c2ncccc2F)n1 [Example 281] | 2.04 |  |
| CCOC(=O)CSc1nccc(-c2ccc3ccccc3n2)n1 [Example 296] | 3.49 |  |
| CCOC(=O)CSc1nccc(-c2nccc3ccccc23)n1 [Example 298] | 2.51 |  |
| c1ccc(-c2ccnc(SCc3nn[nH]n3)n2)nc1 [Example 299] | 1.17 |  |
| Cn1nnc(CSc2nccc(-c3ccccn3)n2)n1 [Example 300] | 1.59 |  |
| Cn1nnnc1CSc1nccc(-c2ccccn2)n1 [Example 301] | 1.24 |  |
| CC(C)(C)n1nnc(CSc2nccc(-c3ccccn3)n2)n1 [Example 302] | 2.69 |  |
| CC1(CCCOC(=O)CSc2nccc(-c3ccccn3)n2)OCCO1 [Example 303] | 2.57 |  |

| Structure (SMILES) | chromatographic logP [1] | further results |
| --- | --- | --- |
| CCOC(=O)c1cc(NC(=O)NCCCOC(=O)CSc2nccc(-c3ccccn3)n2)ccc1Cl [Example 304] | 5.37 |  |
| CCOC(=O)CSc1nccc(-c2ccc(Br)cn2)n1 [Example 305] | 3.39 |  |
| CCOC(=O)CSc1nccc(-c2ccc([N+](=O)[O-])cn2)n1 [Example 306] | 2.77 |  |
| CCOC(=O)CSc1nccc(-c2cccc(Br)n2)n1 [Example 307] | 3.31 |  |
| O=C(CSc1nccc(-c2ccccn2)n1)Nc1cccc([N+](=O)[O-])c1 [Example 308] | 2.25 |  |
| COC(=O)c1ccc(NC(=O)CSc2nccc(-c3ccccn3)n2)cc1 [Example 309] | 2.16 |  |
| CCOC(=O)C(C)N(C)C(=O)CSc1nccc(-c2ccccn2)n1 (centres unmarked) [Example 310] | 1.93 |  |
| CCOC(=O)/C=C(/CSc1nccc(-c2ccccn2)n1)OCC [Example 311] | 3.39 |  |
| CC(C)(C)SC(=O)CSc1nccc(-c2ccccn2)n1 [Example 312] | 3.61 |  |
| Cc1c(NC(=O)CSc2nccc(-c3ccccn3)n2)cccc1[N+](=O)[O-] [Example 313] | 2.28 |  |
| NC(=O)CCSc1nccc(-c2ccccn2)n1 [Example 314] | 0.96 |  |
| CCOC(=O)CN(CC)c1nccc(-c2ccccn2)n1 [Example 315] | 2.13 |  |
| CCOC(=O)CSc1nccc(-c2cc(C(C)(C)C)ccn2)n1 [Example 316] | 3.55 |  |
| CCOC(=O)CSc1nccc(-c2ccc(SC)cn2)n1 [Example 317] | 1.68 |  |
| COC(=O)CSc1nccc(-c2ccccn2)n1 [drawing 415] |  | pest or weed control at 100 ppm [2]: 100% |
| CCOC(=O)CSc1nccc(-c2ccccn2)n1 [drawing 416] |  | pest or weed control at 1000 ppm [2]: 100% |
| CCCOC(=O)CSc1nccc(-c2ccccn2)n1 [drawing 417] |  | pest or weed control at 1000 ppm [2]: 95% |
| CC(C)OC(=O)CSc1nccc(-c2ccccn2)n1 [drawing 418] |  | pest or weed control at 1000 ppm [2]: 100% |
| C=CCOC(=O)CSc1nccc(-c2ccccn2)n1 [drawing 419] |  | pest or weed control at 1000 ppm [2]: 95% |
| O=C(CSc1nccc(-c2ccccn2)n1)OC1CCCCC1 [drawing 420] |  | pest or weed control at 1000 ppm [2]: 100% |
| COC(=O)C(Sc1nccc(-c2ccccn2)n1)C(=O)OC [drawing 421] |  | pest or weed control at 100 ppm [2]: 95% |
| N#CCSc1nccc(-c2ccccn2)n1 [{[4-(2-pyridinyl)-2-pyrimidinyl]thio}acetonitrile] | 1.68 |  |
